Values after ≈ are worked out from the molar mass of the structure shown.
How the values were obtained:
[1] = Cytotoxicity against mouse L929 cells assessed as inhibition of cell growth incubated for 5 days by MTT assay; assay type: toxicity, cell-based
KB 3-1 = assay: Cytotoxicity against human KB 3-1 cells assessed as inhibition of cell growth incubated for 5 days by MTT assay; assay type: functional, cell-based; conditions: KB 3-1, 120 h
MCF7 = assay: Cytotoxicity against human MCF7 cells assessed as inhibition of cell growth incubated for 5 days by MTT assay; assay type: functional, cell-based; conditions: MCF7, 120 h
SK-OV-3 = assay: Cytotoxicity against human SK-OV-3 cells assessed as inhibition of cell growth incubated for 5 days by MTT assay; assay type: functional, cell-based; conditions: SK-OV-3, 120 h
PC-3 = assay: Cytotoxicity against human PC-3 cells assessed as inhibition of cell growth incubated for 5 days by MTT assay; assay type: functional, cell-based; conditions: PC-3, 120 h
A-431 = assay: Cytotoxicity against human A-431 cells assessed as inhibition of cell growth incubated for 5 days by MTT assay; assay type: functional, cell-based; conditions: A-431, 120 h
A549 = assay: Cytotoxicity against human A549 cells assessed as inhibition of cell growth incubated for 5 days by MTT assay; assay type: functional, cell-based; conditions: A549, 120 h
L929 = assay: Cytotoxicity against mouse L929 cells assessed as inhibition of cell growth at 0.0006 to 0.037 ug/ml incubated for 5 days by MTT assay; assay type: toxicity, cell-based; conditions: l929, 120 h, dose 0.0006-0.037 µg/ml, time 5 day
Bacillus subtilis = assay: Antibacterial activity against Bacillus subtilis DSM 10 assessed as inhibition of bacterial growth incubated overnight by serial dilution method; assay type: functional
Candida albicans = assay: Antifungal activity against Candida albicans DSM1665 assessed as inhibition of fungal growth incubated overnight by serial dilution method; assay type: functional
Mucor hiemalis = assay: Antifungal activity against Mucor hiemalis DSM2656 assessed as inhibition of fungal growth incubated overnight by serial dilution method; assay type: functional
Wickerhamomyces anomalus = assay: Antifungal activity against Pichia anomala DSM6766 assessed as inhibition of fungal growth incubated overnight by serial dilution method; assay type: functional
Rhodotorula glutinis = assay: Antifungal activity against Rhodotorula glutinis DSM10134 assessed as inhibition of fungal growth incubated for 48 hrs by serial dilution method; assay type: functional
[2] = test system: Schizosaccharomyces pombe; assay: Antifungal activity against Schizosaccharomyces pombe DSM70572 assessed as inhibition of fungal growth incubated for 48 hrs by serial dilution method; assay type: functional

Molecule `C=C(C(=O)O)[C@]12O[C@]13CC(C)(C)C[C@@H]3[C@H](C)[C@H](O)C2=O` has an IC50 at 5 days [1] of 22 µM, an IC50 (KB 3-1) of 18 µM and an IC50 (MCF7) of 8 µM. It also gave an IC50 (SK-OV-3) of 20 µM, an IC50 (PC-3) of 36 µM and an IC50 (A-431) of 7 µM. It also gave an IC50 (A549) of 53 µM.
Work on `C/C(=C\c1csc(C)n1)[C@H]1C[C@H]2O[C@@]2(C)CCC[C@H](C)[C@@H](O)[C@@H](C)C(=O)C(C)(C)[C@H](O)CC(=O)O1` yielded an IC50 at 5 days [1] of 0.001 µM, an IC50 (KB 3-1) of 0.0028 µM and an IC50 (MCF7) of 0.0027 µM. The IC50 (SK-OV-3) was 0.0075 µM, the IC50 (PC-3) was 0.003 µM and the IC50 (A-431) was 0.0031 µM. It also gave an IC50 (A549) of 0.0034 µM.
In the case of `C[C@@H]1C(=O)c2occ(CO)c2[C@]2(O)CC(C)(C)C[C@H]12`, the Activity (L929) is reported as “Non-Toxic”.
In the case of `C=C(C(=O)O)C1=C2CC(C)(C)C[C@@H]2[C@H](C)CC1=O`, the Activity (L929) is reported as “Non-Toxic”.
Work on `CN(C)[C@@H]1C(O)=C(C(N)=O)C(=O)[C@@]2(O)C(O)=C3C(=O)c4c(O)cccc4[C@@](C)(O)[C@H]3[C@H](O)[C@@H]12` [OXYTETRACYCLINE] yielded an MIC (Bacillus subtilis) of 9.2 µg/mL (≈ 20 µM).
`Cc1cc2[nH]cc(C=O)c2c2c1CC(C)(C)C2` showed an MIC (Bacillus subtilis) of 66.6 µg/mL (≈ 293 µM), an MIC (Candida albicans) of 66.6 µg/mL (≈ 293 µM) and an MIC (Mucor hiemalis) of 16.6 µg/mL (≈ 73 µM). It also gave an MIC (Wickerhamomyces anomalus; Hansenula anomala) of 33.3 µg/mL (≈ 146 µM), an MIC (Rhodotorula glutinis) of 4.2 µg/mL (≈ 18.5 µM) and an MIC [2] of 33.3 µg/mL (≈ 146 µM). The IC50 at 5 days [1] was 41 µM and the IC50 (KB 3-1) was 21 µM.
With `C[C@@H]1C(=O)c2[nH]cc(CO)c2C2=CC(C)(C)C[C@@H]21` the MIC (Rhodotorula glutinis) was 66.6 µg/mL (≈ 271 µM), the IC50 at 5 days [1] was 68 µM and the IC50 (KB 3-1) was 47 µM.
NYSTATIN gave an MIC (Mucor hiemalis) of 9.2 µg/mL, an MIC (Wickerhamomyces anomalus) of 4.6 µg/mL and an MIC (Rhodotorula glutinis) of 1 µg/mL. For the same molecule, the MIC [2] was 4.2 µg/mL.
